“And” between values parts separate entries of the source, which are not always exact repeats. Identical values can stand only once. Inconclusive results and toxic doses are left out.
Tested on: BDF1 mice, P388 leukemia ip, median survival T/C
Assay: NCI In Vivo Anticancer Drug Screen. Data for tumor model P388 Leukemia (intraperitoneal) in B6D2F1 (BDF1) mice
Details: endpoint: median survival time, higher = longer survival
Method in brief: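 Compound-treated tumour-bearing mice were compared with vehicle-treated controls. Survival was recorded, and the value is the treated-group measurement divided by the control-group measurement (T/C).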

[1] = dose: 25.0 mg/kg/injection, schedule: Q01DX009 (ip), vehicle: saline with Tween-80
[2] = dose: 50.0 mg/kg/injection, schedule: Q01DX009 (ip), vehicle: saline with Tween-80
[3] = dose: 100.0 mg/kg/injection, schedule: Q01DX009 (ip), vehicle: saline with Tween-80
[4] = dose: 100.0 mg/kg/injection, schedule: Q01DX009 (ip), vehicle: Klucel (hydroxypropylcellulose) (HPC)
[5] = dose: 100.0 mg/kg/injection, schedule: Q04DX003 (ip), vehicle: Klucel (hydroxypropylcellulose) (HPC)
[6] = dose: 200.0 mg/kg/injection, schedule: Q04DX003 (ip), vehicle: Klucel (hydroxypropylcellulose) (HPC)
[7] = dose: 400.0 mg/kg/injection, schedule: Q04DX003 (ip), vehicle: Klucel (hydroxypropylcellulose) (HPC)
[8] = dose: 100.0 mg/kg/injection, schedule: Q01DX001 (ip), vehicle: saline with Tween-80
[9] = dose: 200.0 mg/kg/injection, schedule: Q01DX001 (ip), vehicle: saline with Tween-80
[10] = dose: 400.0 mg/kg/injection, schedule: Q01DX001 (ip), vehicle: saline with Tween-80
[11] = dose: 25.0 mg/kg/injection, schedule: Q01DX009 (ip), vehicle: saline
[12] = dose: 50.0 mg/kg/injection, schedule: Q01DX009 (ip), vehicle: saline
[13] = dose: 100.0 mg/kg/injection, schedule: Q01DX009 (ip), vehicle: saline
[14] = dose: 100.0 mg/kg/injection, schedule: Q04DX003 (ip), vehicle: saline
[15] = dose: 200.0 mg/kg/injection, schedule: Q04DX003 (ip), vehicle: saline
[16] = dose: 100.0 mg/kg/injection, schedule: Q01DX001 (ip), vehicle: saline
[17] = dose: 200.0 mg/kg/injection, schedule: Q01DX001 (ip), vehicle: saline
[18] = dose: 200.0 mg/kg/injection, schedule: Q01DX009 (ip), vehicle: saline with Tween-80

## [Cl][Pb]([Cl])([c]1ccccc1)[c]1ccccc1
[1]
  T/C: 91 % of control
[2]
  T/C: 87 % of control
[3]
  T/C: 97 % of control

## COCCCN=C(N)c1ccc(NC(=O)c2ccc(C(=O)Nc3ccc(C(N)=NCCCOC)cc3)cc2)cc1
dose: 0.22 mg/kg/injection, schedule: Q01DX009 (ip), vehicle: saline with Tween-80
  T/C: 120 % of control
dose: 0.5 mg/kg/injection, schedule: Q01DX009 (ip), vehicle: saline with Tween-80
  T/C: 116 % of control
dose: 0.66 mg/kg/injection, schedule: Q01DX009 (ip), vehicle: saline with Tween-80
  T/C: 150 % of control
dose: 1.0 mg/kg/injection, schedule: Q01DX009 (ip), vehicle: saline with Tween-80
  T/C: 156 % of control
dose: 1.5 mg/kg/injection, schedule: Q01DX009 (ip), vehicle: saline with Tween-80
  T/C: 176 % of control
dose: 1.78 mg/kg/injection, schedule: Q04DX003 (ip), vehicle: saline with Tween-80
  T/C: 118 % of control
dose: 2.25 mg/kg/injection, schedule: Q01DX009 (ip), vehicle: saline with Tween-80
  T/C: 194 % of control
dose: 3.75 mg/kg/injection, schedule: Q01DX009 (ip), vehicle: saline with Tween-80
  T/C: 231 % of control
dose: 4.0 mg/kg/injection, schedule: Q04DX003 (ip), vehicle: saline with Tween-80
  T/C: 122 % of control
dose: 7.5 mg/kg/injection, schedule: Q01DX009 (ip), vehicle: saline with Tween-80
  T/C: 113 % of control
dose: 15.0 mg/kg/injection, schedule: Q01DX009 (ip), vehicle: saline with Tween-80
  T/C: 90 % of control
dose: 15.0 mg/kg/injection, schedule: Q04DX003 (ip), vehicle: saline with Tween-80
  T/C: 159 % of control

## CCOc1ccc2nc(S(N)(=O)=O)sc2c1
[4]
  T/C: 114 % of control
[5]
  T/C: 104 % of control
dose: 200.0 mg/kg/injection, schedule: Q01DX009 (ip), vehicle: Klucel (hydroxypropylcellulose) (HPC)
  T/C: 114 % of control
[6]
  T/C: 104 % of control
dose: 400.0 mg/kg/injection, schedule: Q01DX009 (ip), vehicle: Klucel (hydroxypropylcellulose) (HPC)
  T/C: 109 % of control
[7]
  T/C: 95 % of control

## CC(Cc1ccc2ccccc2c1)C(=O)c1ccc2ccccc2c1 (centres undefined)
[8]
  T/C: 100 % of control
[9]
  T/C: 100 % of control
[10]
  T/C: 100 % of control

## Cc1cccc(C(=O)CC(O)(C(F)(F)F)C(F)(F)F)c1
[8]
  T/C: 104 % of control
[9]
  T/C: 100 % of control
[10]
  T/C: 109 % of control

## CN(C)CCC12CC(=O)CCC1C=Cc1ccc(O)c(O)c12 (centres undefined)
[11]
  T/C: 100 % of control
[12]
  T/C: 95 % of control
[13]
  T/C: 91 % of control

## COc1ccc(OC)c(/C=N/N=C/c2cc(OC)ccc2OC)c1
[8]
  T/C: 104 % of control
[9]
  T/C: 100 % of control
[10]
  T/C: 104 % of control

## COc1ccc(Cc2nccc3c(OC)c(OC)ccc23)cc1OC
[11]
  T/C: 116 % of control
[12]
  T/C: 106 % of control and 119 % of control
dose: 50.0 mg/kg/injection, schedule: Q04DX003 (ip), vehicle: saline
  T/C: 103 % of control
dose: 75.0 mg/kg/injection, schedule: Q01DX009 (ip), vehicle: saline
  T/C: 119 % of control
[13]
  T/C: 119 % of control
[14]
  T/C: 103 % of control
dose: 200.0 mg/kg/injection, schedule: Q01DX009 (ip), vehicle: saline
  T/C: 87 % of control
[15]
  T/C: 87 % of control

## CC(C)N(C)C(C)(C)CO
dose: 50.0 mg/kg/injection, schedule: Q01DX001 (ip), vehicle: saline
  T/C: 100 % of control
[16]
  T/C: 100 % of control
[17]
  T/C: 100 % of control

## S=P(NCCS)(N1CC1)N1CC1
[1]
  T/C: 95 % of control
[2]
  T/C: 122 % of control
[3]
  T/C: 109 % of control

## Cc1cc(O)c(C(c2ccc(Cl)cc2)c2c(O)cc(C)[nH]c2=O)c(=O)[nH]1
[2]
  T/C: 108 % of control
[3]
  T/C: 108 % of control
[18]
  T/C: 105 % of control

## O=C(CCCCC(=O)N/N=C\c1ccccn1)N/N=C\c1ccccn1
[14]
  T/C: 104 % of control
[15]
  T/C: 100 % of control
dose: 400.0 mg/kg/injection, schedule: Q04DX003 (ip), vehicle: saline
  T/C: 109 % of control

## COC(=O)[C@@]12OC[C@]34[C@H]([C@@H](O)[C@@H]1O)[C@@]1(C)CC(=O)C(OC(=O)CC(=O)OC5=C(C)[C@@H]6C[C@H]7OC(=O)[C@H](OC(=O)C=C(C)C)[C@H]8[C@]9(C(=O)OC)OC[C@]78[C@H]([C@@H](O)[C@@H]9O)[C@@]6(C)CC5=O)=C(C)[C@@H]1C[C@H]3OC(=O)[C@H](OC(=O)C=C(C)C)[C@@H]24
dose: 0.18 mg/kg/injection, schedule: Q01DX009 (ip), vehicle: distilled water + Tween-80
  T/C: 104 % of control
dose: 0.37 mg/kg/injection, schedule: Q01DX009 (ip), vehicle: distilled water + Tween-80
  T/C: 104 % of control
dose: 0.75 mg/kg/injection, schedule: Q01DX009 (ip), vehicle: distilled water + Tween-80
  T/C: 100 % of control
dose: 1.5 mg/kg/injection, schedule: Q01DX009 (ip), vehicle: distilled water + Tween-80
  T/C: 98 % of control
dose: 3.0 mg/kg/injection, schedule: Q01DX009 (ip), vehicle: distilled water + Tween-80
  T/C: 111 % of control

## CSc1ccccc1C=O
[5]
  T/C: 95 % of control
[6]
  T/C: 100 % of control
[7]
  T/C: 112 % of control

## OC1(CSc2ccccc2)CCCCC1
[2]
  T/C: 111 % of control
[3]
  T/C: 116 % of control and 119 % of control
[18]
  T/C: 116 % of control
dose: 400.0 mg/kg/injection, schedule: Q01DX009 (ip), vehicle: saline with Tween-80
  T/C: 122 % of control

## NC(C(=O)O)C(O)c1cnc[nH]1 (centres undefined)
dose: 25.0 mg/kg/injection, schedule: Q01DX009 (ip), vehicle: water
  T/C: 101 % of control
dose: 50.0 mg/kg/injection, schedule: Q01DX009 (ip), vehicle: water
  T/C: 96 % of control
dose: 100.0 mg/kg/injection, schedule: Q01DX009 (ip), vehicle: water
  T/C: 97 % of control
dose: 200.0 mg/kg/injection, schedule: Q01DX009 (ip), vehicle: water
  T/C: 93 % of control
dose: 400.0 mg/kg/injection, schedule: Q01DX009 (ip), vehicle: water
  T/C: 97 % of control

## O=Cc1ccc(N2CCCCC2)cc1
[5]
  T/C: 91 % of control
[6]
  T/C: 95 % of control

## CC(=O)CC(C)=O.CC(=O)CC(C)=O.Cc1c[nH]cn1.O=N[O-].[Co]
dose: 100.0 mg/kg/injection, schedule: Q04DX002 (ip), vehicle: saline with Tween-80
  T/C: 107 % of control
dose: 200.0 mg/kg/injection, schedule: Q04DX002 (ip), vehicle: saline with Tween-80
  T/C: 124 % of control

## CC(C)(C)c1cc([N+](=O)[O-])cc(C(C)(C)C)c1O
dose: 25.0 mg/kg/injection, schedule: Q01DX009 (ip), vehicle: Klucel (hydroxypropylcellulose) (HPC)
  T/C: 90 % of control and 100 % of control
dose: 25.0 mg/kg/injection, schedule: Q04DX003 (ip), vehicle: Klucel (hydroxypropylcellulose) (HPC)
  T/C: 100 % of control
dose: 50.0 mg/kg/injection, schedule: Q01DX009 (ip), vehicle: Klucel (hydroxypropylcellulose) (HPC)
  T/C: 96 % of control and 109 % of control
dose: 50.0 mg/kg/injection, schedule: Q04DX003 (ip), vehicle: Klucel (hydroxypropylcellulose) (HPC)
  T/C: 86 % of control and 88 % of control
[4]
  T/C: 95 % of control and 96 % of control
[5]
  T/C: 86 % of control and 88 % of control
[6]
  T/C: 92 % of control

## CC1(C)N=C(N)N=C(N)N1c1ccccc1
dose: 12.5 mg/kg/injection, schedule: Q01DX009 (ip), vehicle: saline
  T/C: 118 % of control
[11]
  T/C: 113 % of control
[12]
  T/C: 118 % of control

## COc1cccc2c1C(=O)c1c(O)c3c(c(O)c1C2=O)C[C@@](O)(C(=O)CO)C[C@@H]3OC1CC(NC(=S)Nc2ccc(F)cc2)C(O)C(C)O1 (some centres undefined)
dose: 6.25 mg/kg/injection, schedule: Q01DX009 (ip), vehicle: saline
  T/C: 90 % of control
[11]
  T/C: 150 % of control
[12]
  T/C: 106 % of control
[13]
  T/C: 122 % of control

## Cn1c([N+](=O)[O-])cnc1/C=N/N1CCN(/N=C/c2ncc([N+](=O)[O-])n2C)CC1
[2]
  T/C: 101 % of control
[3]
  T/C: 113 % of control
[18]
  T/C: 94 % of control

## Cc1ccc(S(=O)(=O)Oc2cc([N+](=O)[O-])ccc2N)cc1
[16]
  T/C: 109 % of control
[17]
  T/C: 100 % of control
dose: 400.0 mg/kg/injection, schedule: Q01DX001 (ip), vehicle: saline
  T/C: 104 % of control
